Ends that are not written are not given here.
What was measured:
Experiment in all cases: biochemical
Type in all cases: binding
Conditions in all cases: for inhibition at 250 µM: 24 h, read-out: Binding percentage
[1] = target: T1, HLA-DRB1*0401 (Homo sapiens, UniProt P01903+P01911, A100K/A169T/F76Y/I96L/K127E/L162R/M171V/N62H/P40V/Q125Y/R42H/S133A/S149N/S66Y/V115G/V209L/W38E)
T1 construct: homozygous lymphoblastoid B-cell lines (International Histocompatibility Working Group); host or cells: human HLA-DRB1*0401 homozygous lymphoblastoid B-cell line

[2] = target: HLA-DRB1*0701 (Homo sapiens, UniProt P01903+P01911, A100R/A102G/A103Q/D57E/D86V/E43K/F76Y/K127E/L162R/M171V/P40G/Q125H/Q99D/R33Q/R42Y/R54Q/S133A/S66F/T210M/V115G/Y107V/Y59L/Y89S)
[3] = target: HLA-DRB1*1101 (Homo sapiens, UniProt P01903+P01911, A100R/A169T/A87E/I96F/K41T/L162R/M171V/P40S/Q125H/Q178H/Q39Y/Q99D/R42S/S66Y/T262R/V115G/W38E)
Sequence of HLA-DRB1*1101 (P01903 26-254 limits assumed, other chains not shown): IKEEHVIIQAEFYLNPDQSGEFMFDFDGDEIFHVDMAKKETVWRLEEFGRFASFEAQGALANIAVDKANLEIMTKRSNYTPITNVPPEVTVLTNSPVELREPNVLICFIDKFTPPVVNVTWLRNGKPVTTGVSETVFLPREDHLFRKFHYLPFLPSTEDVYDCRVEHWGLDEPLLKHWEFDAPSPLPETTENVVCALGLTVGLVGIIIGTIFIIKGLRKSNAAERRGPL

[4] = target: HLA-DRB1*1302 (Homo sapiens, UniProt P01903+P01911, A100E/A169T/K41T/L162R/M171V/P40S/Q125H/Q178H/Q39Y/Q99D/R42S/S66N/T262R/V115G/W38E/Y61H)
Sequence of HLA-DRB1*1302 (P01903 26-254 limits assumed, other chains not shown): as above

LFYVNLFIMSSLSRK [compound 39152]
IC50 [1]: 2.8 µM | inhibition at 250 µM [1]: 65.8% | inhibition at 250 µM [2]: 11% | IC50 [3]: 1.9 µM | inhibition at 250 µM [3]: 91.8% | IC50 [4]: 8 µM | inhibition at 250 µM [4]: 94.7%

LKFIVRGNNLKFLNN [compound 39154]
inhibition at 250 µM [1]: 22.2% | inhibition at 250 µM [2]: 43.7% | inhibition at 250 µM [3]: 24.9% | IC50 [4]: 6.5 µM | inhibition at 250 µM [4]: 90.1%

MKLLQHIPANLLENI [compound 39153]
IC50 [1]: 57 µM | inhibition at 250 µM [1]: 61.2% | IC50 [2]: 7.5 µM | inhibition at 250 µM [2]: 85.4% | IC50 [3]: 52.1 µM | inhibition at 250 µM [3]: 72.7% | IC50 [4]: 10.7 µM | inhibition at 250 µM [4]: 91.9%

RGPVNYHFSNYMNLD [compound 39047]
IC50 [1]: 54.5 µM | inhibition at 250 µM [1]: 59.8% | IC50 [2]: 6 µM | inhibition at 250 µM [2]: 90.4% | inhibition at 250 µM [3]: 0% | inhibition at 250 µM [4]: 37.8%
